Results: patent US7335814B2, “Transgenic cells expressing glucosyltransferase nucleic acids” (The University of York, priority 2000, dated 2008)

T1: recombinant GTase A911 (Arabidopsis thaliana, UniProt O22182)
T1 sequence (O22182 1-456): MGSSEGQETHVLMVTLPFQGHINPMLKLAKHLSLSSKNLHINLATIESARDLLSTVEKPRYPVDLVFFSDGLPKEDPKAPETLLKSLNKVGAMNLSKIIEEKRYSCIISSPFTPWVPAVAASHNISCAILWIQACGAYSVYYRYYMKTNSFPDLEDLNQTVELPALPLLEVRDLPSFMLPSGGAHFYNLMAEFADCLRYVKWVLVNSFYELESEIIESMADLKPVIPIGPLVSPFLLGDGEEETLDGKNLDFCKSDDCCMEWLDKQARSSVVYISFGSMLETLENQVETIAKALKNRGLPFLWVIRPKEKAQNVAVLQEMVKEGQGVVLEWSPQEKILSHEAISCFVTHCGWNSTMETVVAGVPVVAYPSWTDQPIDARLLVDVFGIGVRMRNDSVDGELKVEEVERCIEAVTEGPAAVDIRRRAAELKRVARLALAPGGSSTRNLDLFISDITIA

T2: recombinant GTase A062 (Arabidopsis thaliana, UniProt Q9LR44)
T2 construct: made in house; host or cells: E. coli
T2 sequence (Q9LR44 1-469): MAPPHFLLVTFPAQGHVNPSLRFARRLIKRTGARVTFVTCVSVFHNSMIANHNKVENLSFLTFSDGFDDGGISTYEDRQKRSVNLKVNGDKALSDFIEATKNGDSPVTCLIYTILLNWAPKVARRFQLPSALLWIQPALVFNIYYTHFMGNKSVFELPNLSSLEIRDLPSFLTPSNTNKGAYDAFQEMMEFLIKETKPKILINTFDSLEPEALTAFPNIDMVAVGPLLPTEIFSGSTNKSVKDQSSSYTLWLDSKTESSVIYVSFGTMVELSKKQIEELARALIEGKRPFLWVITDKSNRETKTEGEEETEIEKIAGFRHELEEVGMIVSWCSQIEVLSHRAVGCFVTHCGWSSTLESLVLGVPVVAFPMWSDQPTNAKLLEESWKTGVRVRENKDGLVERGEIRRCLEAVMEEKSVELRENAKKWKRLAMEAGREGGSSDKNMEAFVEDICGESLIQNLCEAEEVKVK

T3: UGT71C1 (Arabidopsis thaliana, UniProt O82381)
T3 construct: GST (N); made in house; host or cells: E. coli
T3 sequence (O82381 1-481): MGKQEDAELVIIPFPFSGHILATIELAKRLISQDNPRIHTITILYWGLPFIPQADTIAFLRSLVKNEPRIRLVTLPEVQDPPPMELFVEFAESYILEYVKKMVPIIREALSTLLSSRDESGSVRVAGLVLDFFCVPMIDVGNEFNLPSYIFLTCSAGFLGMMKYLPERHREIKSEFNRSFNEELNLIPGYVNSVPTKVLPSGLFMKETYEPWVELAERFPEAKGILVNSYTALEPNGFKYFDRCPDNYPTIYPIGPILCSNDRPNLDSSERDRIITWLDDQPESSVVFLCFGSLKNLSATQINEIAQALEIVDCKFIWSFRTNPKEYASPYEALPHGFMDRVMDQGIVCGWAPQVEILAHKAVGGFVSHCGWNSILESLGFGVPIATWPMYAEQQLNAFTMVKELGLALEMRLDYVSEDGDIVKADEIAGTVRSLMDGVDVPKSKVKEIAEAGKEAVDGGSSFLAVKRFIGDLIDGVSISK

T4: recombinant GTase A961 (Arabidopsis thaliana, UniProt O82381)
T4 construct: made in house; host or cells: E. coli
T4 sequence (O82381 1-481): T3 sequence (O82381 1-481)

T5: recombinant GTase A119 (Arabidopsis thaliana, UniProt Q9LVR1)
T5 construct: made in house; host or cells: E. coli
T5 sequence (Q9LVR1 1-481): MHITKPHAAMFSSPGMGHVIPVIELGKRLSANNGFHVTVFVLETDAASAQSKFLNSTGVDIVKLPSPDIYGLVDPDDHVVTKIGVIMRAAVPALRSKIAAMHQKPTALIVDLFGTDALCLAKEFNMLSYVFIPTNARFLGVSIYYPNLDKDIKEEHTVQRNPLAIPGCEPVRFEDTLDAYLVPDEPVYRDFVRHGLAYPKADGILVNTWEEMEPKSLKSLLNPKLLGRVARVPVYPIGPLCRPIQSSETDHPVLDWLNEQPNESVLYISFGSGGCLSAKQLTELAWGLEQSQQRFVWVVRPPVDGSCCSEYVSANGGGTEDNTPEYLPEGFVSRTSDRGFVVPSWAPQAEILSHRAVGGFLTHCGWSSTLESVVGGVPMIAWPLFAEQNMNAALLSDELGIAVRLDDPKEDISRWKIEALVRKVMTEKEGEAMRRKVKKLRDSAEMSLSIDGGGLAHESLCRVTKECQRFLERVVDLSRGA

T6: recombinant GTase A320 (Arabidopsis thaliana, UniProt Q9LVF0)
T6 construct: made in house; host or cells: E. coli
T6 sequence (Q9LVF0 1-496): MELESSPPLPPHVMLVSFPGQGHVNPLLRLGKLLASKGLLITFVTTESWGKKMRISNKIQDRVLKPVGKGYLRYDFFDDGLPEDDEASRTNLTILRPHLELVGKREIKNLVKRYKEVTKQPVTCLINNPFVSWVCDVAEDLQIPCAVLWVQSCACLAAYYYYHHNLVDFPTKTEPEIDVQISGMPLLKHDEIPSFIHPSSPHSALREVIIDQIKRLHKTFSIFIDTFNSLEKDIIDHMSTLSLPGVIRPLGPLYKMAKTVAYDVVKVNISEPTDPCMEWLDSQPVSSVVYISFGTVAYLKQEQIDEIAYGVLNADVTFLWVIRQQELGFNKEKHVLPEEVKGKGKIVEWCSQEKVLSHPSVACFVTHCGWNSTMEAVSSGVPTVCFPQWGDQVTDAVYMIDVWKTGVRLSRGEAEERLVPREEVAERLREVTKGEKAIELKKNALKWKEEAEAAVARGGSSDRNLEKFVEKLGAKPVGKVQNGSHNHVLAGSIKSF

T7: recombinant GTase A407 (Arabidopsis thaliana, UniProt O81498)
T7 construct: made in house; host or cells: E. coli
T7 sequence (O81498 1-481): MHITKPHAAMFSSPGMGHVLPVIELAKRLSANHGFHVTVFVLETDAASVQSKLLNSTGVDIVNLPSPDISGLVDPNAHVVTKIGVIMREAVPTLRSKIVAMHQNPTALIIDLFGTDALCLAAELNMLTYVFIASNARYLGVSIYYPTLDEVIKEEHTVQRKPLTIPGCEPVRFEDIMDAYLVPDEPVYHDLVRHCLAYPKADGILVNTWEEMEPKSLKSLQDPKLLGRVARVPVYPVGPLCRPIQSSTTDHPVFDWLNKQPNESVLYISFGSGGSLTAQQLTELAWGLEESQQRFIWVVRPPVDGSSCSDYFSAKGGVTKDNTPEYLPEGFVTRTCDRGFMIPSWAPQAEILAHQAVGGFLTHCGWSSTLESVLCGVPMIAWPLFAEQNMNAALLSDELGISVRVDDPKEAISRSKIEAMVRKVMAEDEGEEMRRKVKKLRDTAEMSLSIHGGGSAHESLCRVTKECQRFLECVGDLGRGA

T8: recombinant GTase A42 (Arabidopsis thaliana, UniProt O23401)
T8 construct: made in house; host or cells: E. coli
T8 sequence (O23401 1-479): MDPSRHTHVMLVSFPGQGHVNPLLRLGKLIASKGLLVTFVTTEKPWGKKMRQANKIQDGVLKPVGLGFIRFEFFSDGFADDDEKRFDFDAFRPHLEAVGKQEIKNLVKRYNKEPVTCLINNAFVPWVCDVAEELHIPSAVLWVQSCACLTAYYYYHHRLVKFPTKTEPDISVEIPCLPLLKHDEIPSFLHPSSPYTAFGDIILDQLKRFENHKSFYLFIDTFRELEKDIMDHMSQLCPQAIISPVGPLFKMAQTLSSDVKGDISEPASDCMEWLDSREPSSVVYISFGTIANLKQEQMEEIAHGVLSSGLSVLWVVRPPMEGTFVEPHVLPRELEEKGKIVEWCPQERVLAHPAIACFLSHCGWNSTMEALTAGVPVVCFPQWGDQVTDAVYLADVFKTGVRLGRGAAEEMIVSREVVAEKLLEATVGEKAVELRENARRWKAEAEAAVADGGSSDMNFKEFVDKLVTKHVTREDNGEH

T9: recombinant GTase A41 (Arabidopsis thaliana, UniProt Q5XF20)
T9 construct: made in house; host or cells: E. coli
T9 sequence (Q5XF20 7-490): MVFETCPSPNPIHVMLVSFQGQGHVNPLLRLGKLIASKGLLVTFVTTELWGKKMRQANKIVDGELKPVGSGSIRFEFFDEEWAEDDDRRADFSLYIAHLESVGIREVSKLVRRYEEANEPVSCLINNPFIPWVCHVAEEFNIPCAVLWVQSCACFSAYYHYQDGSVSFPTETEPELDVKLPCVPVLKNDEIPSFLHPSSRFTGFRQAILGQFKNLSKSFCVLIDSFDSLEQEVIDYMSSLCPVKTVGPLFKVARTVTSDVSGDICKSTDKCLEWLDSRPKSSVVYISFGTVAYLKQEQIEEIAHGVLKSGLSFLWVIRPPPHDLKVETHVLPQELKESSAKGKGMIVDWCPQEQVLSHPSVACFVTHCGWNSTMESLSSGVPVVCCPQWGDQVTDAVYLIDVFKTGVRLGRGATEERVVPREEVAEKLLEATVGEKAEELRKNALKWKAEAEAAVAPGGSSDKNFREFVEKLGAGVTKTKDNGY

B1: recombinant GTase A062 (Arabidopsis thaliana) (protein)
chain: T2 sequence (Q9LR44 1-469)
notes: made in house; host or cells: E. coli

How the values were obtained:
recombinant GTase A911 [1] = biological target: T1, recombinant GTase A911; assay: Specific activity of recombinant GTase producing glucose ester against lignin precursors (HPLC); assay type: biochemical; parameters: made in house; host or cells: E. coli; settings: 0.5 ml of potential substrates, 5 mM UDPG, 0.2 μg GTase, 200 μl, 20° C., 30 min
recombinant GTase A062 = biological target: T2, recombinant GTase A062; assay: as above; assay type: biochemical; settings: 0.5 ml of potential substrates, 5 mM UDPG, 0.2 μg GTase, 200 μl, 20° C., 30 min
UGT71C1 = biological target: T3, UGT71C1; assay: UGT71C1 glucosyltransferase specific activity towards phenolic compounds (reverse-phase HPLC); assay type: biochemical; settings: 1 mM phenolic compound, 5 mM UDP-glucose, 50 mM TRIS-HCl pH 7.0, 30° C., 30 min; mean of three replicates ± standard deviation
recombinant GTase A233 = biological target: T10, recombinant GTase A233 (Arabidopsis thaliana, UniProt Q8W491); assay: Specific activity of recombinant GTase producing O-glucosides against lignin precursors (HPLC); assay type: biochemical; settings: 30° C.; ND = not detected
T10 construct: made in house; host or cells: E. coli

recombinant GTase A961 = biological target: T4, recombinant GTase A961; assay: as above; assay type: biochemical; settings: 30° C.; ND = not detected
recombinant GTase A43 = biological target: T11, recombinant GTase A43 (Arabidopsis thaliana, UniProt O23402); assay: Specific activity of recombinant GTase producing glucose ester against lignin precursors (HPLC); assay type: biochemical; settings: 0.5 ml of potential substrates, 5 mM UDPG, 0.2 μg GTase, 200 μl, 20° C., 30 min
T11 construct: made in house; host or cells: E. coli

recombinant GTase A119 = biological target: T5, recombinant GTase A119; assay: Specific activity of recombinant GTase producing O-glucosides against lignin precursors (HPLC); assay type: biochemical; settings: 30° C.; ND = not detected
recombinant GTase A320 = biological target: T6, recombinant GTase A320; assay: Specific activity of recombinant GTase producing glucose ester against lignin precursors (HPLC); assay type: biochemical; settings: 5 mM UDPG, 0.2 μg GTase, 200 μl, 20° C., 30 min
recombinant GTase A407 = biological target: T7, recombinant GTase A407; assay: Specific activity of recombinant GTase producing O-glucosides against lignin precursors (HPLC); assay type: biochemical; settings: 30° C.; ND = not detected
recombinant GTase A42 [2] = biological target: T8, recombinant GTase A42; assay: Specific activity of recombinant GTase producing glucose ester against lignin precursors (HPLC); assay type: biochemical; settings: 0.5 ml of potential substrates, 5 mM UDPG, 0.2 μg GTase, 200 μl, 20° C., 30 min
recombinant GTase A911 [3] = biological target: T1, recombinant GTase A911; assay: Kinetic studies (Michaelis-Menten) on recombinant GTase producing glucose esters; settings: glucose ester formation
recombinant GTase A42 [4] = biological target: T8, recombinant GTase A42; assay: as above; assay type: biochemical; settings: glucose ester formation
recombinant GTase A41 = biological target: T9, recombinant GTase A41; assay: Specific activity of recombinant GTase producing glucose ester against lignin precursors (HPLC); assay type: biochemical; settings: 5 mM UDPG, 0.2 μg GTase, 200 μl, 20° C., 30 min
[5] = substrate: O=C(O)/C=C/c1ccc(O)cc1; assay: Kinetic studies (Michaelis-Menten) on recombinant GTase producing glucose esters; assay type: biochemical, Arabidopsis thaliana; settings: other: glucose ester formation; pH 7.0; 30.0 °C
[6] = substrate: O=C(O)C=Cc1ccccc1; assay: as above; assay type: biochemical, Arabidopsis thaliana; settings: other: glucose ester formation; pH 7.0; 30.0 °C

Row | Molecule | Specific activity of A911 (substrate converted to glucose ester) (recombinant GTase A911 [1]) | Specific activity of A062 (substrate converted to glucose ester) (recombinant GTase A062) | Specific activity (UGT71C1) (UGT71C1) | Specific activity of A233 (substrate converted to 4-O-glucoside) (recombinant GTase A233) | Specific activity of A961 (substrate converted to 4-O-glucoside) (recombinant GTase A961) | Specific activity of A43 (substrate converted to glucose ester) (recombinant GTase A43) | Specific activity of A119 (substrate converted to 4-O-glucoside) (recombinant GTase A119) | Specific activity of A320 (substrate converted to glucose ester) (recombinant GTase A320) | Specific activity of A407 (substrate converted to 4-O-glucoside) (recombinant GTase A407) | Specific activity of A42 (substrate converted to glucose ester) (recombinant GTase A42 [2]) | Vmax (A911) (recombinant GTase A911 [3]) | Vmax (A42) (recombinant GTase A42 [4]) | Specific activity of A41 (substrate converted to glucose ester) (recombinant GTase A41) | Km [5] | Vmax [5] | Km [6] | Vmax [6]
1 | O=C(O)C=Cc1ccc(O)c(O)c1 [Caffeic acid, 3,4-dihydroxycinnamic acid] | 0.77 nkat/mg | 0.26 nkat/mg | 2.9 ± 0.8 nkat/mg | 0.48 nkat/mg | 0.07 nkat/mg | 0.01 nkat/mg | 0.13 nkat/mg | 0.05 nkat/mg | 0.07 nkat/mg | – | – | – | – | – | – | – | –
2 | O=C(O)C=Cc1ccccc1 [Cinnamic acid, cinnamic acid] | 8.77 nkat/mg | 1.62 nkat/mg | – | – | – | 0.02 nkat/mg | – | 0.06 nkat/mg | – | 14.21 nkat/mg | 9.06 nkat/mg | 19.42 nkat/mg | 0.30 nkat/mg | – | – | – | –
3 | B1 | – | – | – | – | – | – | – | – | – | – | – | – | – | 5.05 mM | 4.91 nkat/mg | 4.33 mM | 2.87 nkat/mg
